{"source": "paper PMC11859928", "about": "“Design, Synthesis, and Antiproliferative Activity of Novel Indole/1,2,4-Triazole Hybrids as Tubulin Polymerization Inhibitors” (Pharmaceuticals, 2025)", "key": {"OVCAR-8": {"system": "OVCAR-8", "test": "NCI five-dose assay", "type": "cell-based, human", "settings": "OVCAR-8, five dose levels"}, "HCC-2998": {"system": "HCC-2998", "test": "NCI five-dose assay", "type": "cell-based, human", "settings": "Homo sapiens, HCC-2998, five dose levels"}, "EKVX": {"system": "EKVX", "test": "NCI five-dose assay", "type": "cell-based, human", "settings": "five dose levels"}, "SK-OV-3": {"system": "SK-OV-3", "test": "NCI five-dose assay", "type": "cell-based, human", "settings": "Homo sapiens, SK-OV-3, five dose levels"}, "UACC-257": {"system": "UACC-257", "test": "NCI five-dose assay", "type": "cell-based, human", "settings": "UACC-257, five dose levels"}, "K-562": {"system": "K-562", "test": "NCI five-dose assay", "type": "cell-based, human", "settings": "Homo sapiens, K562, K-562, five dose levels"}, "DU-145": {"system": "DU-145", "test": "NCI five-dose assay", "type": "cell-based, human", "settings": "DU-145, five dose levels"}, "ACHN": {"system": "ACHN", "test": "NCI five-dose assay", "type": "cell-based, human", "settings": "five dose levels"}, "SF-268": {"system": "SF-268", "test": "NCI five-dose assay", "type": "cell-based, human", "settings": "SF-268, five dose levels"}, "NCI/ADR-RES": {"system": "NCI/ADR-RES", "test": "NCI five-dose assay", "type": "cell-based, human", "settings": "five dose levels"}, "MOLT-4": {"system": "MOLT-4", "test": "NCI five-dose assay", "type": "cell-based, human", "settings": "MOLT-4, five dose levels"}, "SN12C": {"system": "SN12C", "test": "NCI five-dose assay", "type": "cell-based, human", "settings": "five dose levels"}, "NCI-H23": {"system": "NCI-H23", "test": "NCI five-dose assay", "type": "cell-based, human", "settings": "NCI-H23, five dose levels"}, "MALME-3M": {"system": "MALME-3M", "test": "NCI five-dose assay", "type": "cell-based, human", "settings": "five dose levels"}, "MDA-MB-435": {"system": "MDA-MB-435", "test": "NCI five-dose assay", "type": "cell-based, human", "settings": "MDA-MB-435, five dose levels"}, "[1]": {"system": "panel of 60 human tumor cell lines", "test": "NCI five-dose assay, full panel", "type": "cell-based"}, "U251": {"system": "U251", "test": "NCI five-dose assay", "type": "cell-based, human", "settings": "U251, five dose levels"}, "OVCAR-3": {"system": "OVCAR-3", "test": "NCI five-dose assay", "type": "cell-based, human", "settings": "OVCAR-3, five dose levels"}, "786-0": {"system": "786-0", "test": "NCI five-dose assay", "type": "cell-based, human", "settings": "786-0, five dose levels"}, "SW-620": {"system": "SW-620", "test": "NCI five-dose assay", "type": "cell-based, human", "settings": "SW-620, five dose levels"}, "NCI-H226": {"system": "NCI-H226", "test": "NCI five-dose assay", "type": "cell-based, human", "settings": "Homo sapiens, NCI-H226, five dose levels"}, "CAKI-1": {"system": "CAKI-1", "test": "NCI five-dose assay", "type": "cell-based, human", "settings": "CAKI-1, five dose levels"}, "PC-3": {"system": "PC-3", "test": "NCI five-dose assay", "type": "cell-based, human", "settings": "PC-3, five dose levels"}, "MDA/MB-231-ATCC": {"system": "MDA/MB-231-ATCC", "test": "NCI five-dose assay", "type": "cell-based, human", "settings": "five dose levels"}, "SF-539": {"system": "SF-539", "test": "NCI five-dose assay", "type": "cell-based, human", "settings": "SF-539, five dose levels"}, "Prostate cancer subpanel": {"system": "Prostate cancer subpanel", "test": "NCI five-dose assay, subpanel mean", "type": "cell-based, human"}, "[2]": {"settings": "Homo sapiens, read-out: GI50 Conc. per Cell Lines"}, "[3]": {"settings": "Homo sapiens, read-out: LC50 (the source's name)"}, "[4]": {"settings": "read-out: GI50 Conc. per Cell Lines"}, "[5]": {"settings": "read-out: LC50 (the source's name)"}}, "note": "Like-named read-outs stand apart in the source and are kept apart here.", "data": [{"smiles": "O/N=C(\\CSc1nnc(-c2c[nH]c3ccccc23)n1-c1ccccc1)c1ccc(Cl)cc1", "note": "[Compound 7j, (Z)-2-((5-(1H-Indol-3-yl)-4-phenyl-4H-1,2,4-triazol-3-yl)thio)-1-(4-chlorophenyl) Ethanone Oxime]", "values": [{"measurement": "GI50", "setting": "OVCAR-8; [2]", "result": 3.72, "unit": "µM"}, {"measurement": "CC50", "setting": "OVCAR-8; [3]", "result": "> 100", "unit": "µM"}, {"measurement": "TGI Conc. per Cell Lines", "setting": "OVCAR-8", "result": 15.8, "unit": "µM"}, {"measurement": "GI50", "setting": "HCC-2998; [4]", "result": 4.74, "unit": "µM"}, {"measurement": "CC50", "setting": "HCC-2998; [5]", "result": "> 100", "unit": "µM"}, {"measurement": "GI50", "setting": "EKVX; [2]", "result": 3.21, "unit": "µM"}, {"measurement": "CC50", "setting": "EKVX; [3]", "result": "> 100", "unit": "µM"}, {"measurement": "TGI Conc. per Cell Lines", "setting": "EKVX", "result": 19.2, "unit": "µM"}, {"measurement": "GI50", "setting": "SK-OV-3; [4]", "result": 3.38, "unit": "µM"}, {"measurement": "CC50", "setting": "SK-OV-3; [5]", "result": 71.4, "unit": "µM"}, {"measurement": "GI50", "setting": "UACC-257; [2]", "result": 4.67, "unit": "µM"}, {"measurement": "CC50", "setting": "UACC-257; [3]", "result": "> 100", "unit": "µM"}, {"measurement": "TGI Conc. per Cell Lines", "setting": "UACC-257", "result": 87.8, "unit": "µM"}, {"measurement": "GI50", "setting": "K-562; [4]", "result": 2.55, "unit": "µM"}, {"measurement": "CC50", "setting": "K-562; [5]", "result": "> 100", "unit": "µM"}, {"measurement": "TGI Conc. per Cell Lines", "setting": "DU-145", "result": 6.32, "unit": "µM"}, {"measurement": "GI50", "setting": "DU-145; [2]", "result": 2.59, "unit": "µM"}, {"measurement": "CC50", "setting": "DU-145; [3]", "result": "> 100", "unit": "µM"}, {"measurement": "LC50", "setting": "ACHN; Homo sapiens", "result": "> 100", "unit": "µM"}, {"measurement": "GI50", "setting": "ACHN; [2]", "result": 3.69, "unit": "µM"}, {"measurement": "TGI Conc. per Cell Lines", "setting": "ACHN", "result": 14.5, "unit": "µM"}, {"measurement": "GI50", "setting": "SF-268; [2]", "result": 2.11, "unit": "µM"}, {"measurement": "CC50", "setting": "SF-268; [3]", "result": "> 100", "unit": "µM"}, {"measurement": "TGI Conc. per Cell Lines", "setting": "SF-268", "result": 5.08, "unit": "µM"}, {"measurement": "LC50", "setting": "NCI/ADR-RES; Homo sapiens", "result": "> 100", "unit": "µM"}, {"measurement": "GI50", "setting": "NCI/ADR-RES; [2]", "result": 2.95, "unit": "µM"}, {"measurement": "TGI Conc. per Cell Lines", "setting": "NCI/ADR-RES", "result": 9.50, "unit": "µM"}, {"measurement": "GI50", "setting": "MOLT-4; [2]", "result": 2.16, "unit": "µM"}, {"measurement": "CC50", "setting": "MOLT-4; [3]", "result": "> 100", "unit": "µM"}, {"measurement": "TGI Conc. per Cell Lines", "setting": "MOLT-4", "result": 5.69, "unit": "µM"}, {"measurement": "GI50", "setting": "SN12C; [2]", "result": 3.79, "unit": "µM"}, {"measurement": "CC50", "setting": "SN12C; [3]", "result": "> 100", "unit": "µM"}, {"measurement": "TGI Conc. per Cell Lines", "setting": "SN12C", "result": 16.3, "unit": "µM"}, {"measurement": "GI50", "setting": "NCI-H23; [2]", "result": 6.52, "unit": "µM"}, {"measurement": "CC50", "setting": "NCI-H23; [3]", "result": "> 100", "unit": "µM"}, {"measurement": "TGI Conc. per Cell Lines", "setting": "NCI-H23", "result": ">100", "unit": "µM"}, {"measurement": "GI50", "setting": "MALME-3M; [2]", "result": 4.99, "unit": "µM"}, {"measurement": "CC50", "setting": "MALME-3M; [3]", "result": "> 100", "unit": "µM"}, {"measurement": "TGI Conc. per Cell Lines", "setting": "MALME-3M", "result": 27.5, "unit": "µM"}, {"measurement": "GI50", "setting": "MDA-MB-435; [2]", "result": 1.74, "unit": "µM"}, {"measurement": "CC50", "setting": "MDA-MB-435; [3]", "result": 60.5, "unit": "µM"}, {"measurement": "TGI Conc. per Cell Lines", "setting": "MDA-MB-435", "result": 3.41, "unit": "µM"}, {"measurement": "GI50", "setting": "[1]; average sensitivity of all cell lines, read-out: GI50 MID a", "result": 3.65, "unit": "µM"}, {"measurement": "GI50", "setting": "[1]; most of the tested cell lines across nine subpanels, read-out: GI50 values, range across nine subpanels", "result": "2.45 to 5.23", "unit": "µM"}, {"measurement": "GI50", "setting": "U251; Homo sapiens, U-251, read-out: GI50 Conc. per Cell Lines", "result": 4.73, "unit": "µM"}, {"measurement": "CC50", "setting": "U251; Homo sapiens, U-251, read-out: LC50 (the source's name)", "result": 46.9, "unit": "µM"}, {"measurement": "TGI Conc. per Cell Lines", "setting": "U251", "result": 81.2, "unit": "µM"}, {"measurement": "LC50", "setting": "OVCAR-3; Homo sapiens", "result": "> 100", "unit": "µM"}, {"measurement": "GI50", "setting": "OVCAR-3; [2]", "result": 4.58, "unit": "µM"}, {"measurement": "TGI Conc. per Cell Lines", "setting": "OVCAR-3", "result": 32.4, "unit": "µM"}, {"measurement": "TGI Conc. per Cell Lines", "setting": "786-0", "result": ">100", "unit": "µM"}, {"measurement": "LC50 (50% lethal concentration)", "setting": "786-0; Homo sapiens", "result": 93.5, "unit": "µM"}, {"measurement": "GI50", "setting": "786-0; [2]", "result": 7.29, "unit": "µM"}, {"measurement": "GI50", "setting": "SW-620; [2]", "result": 3.08, "unit": "µM"}, {"measurement": "CC50", "setting": "SW-620; [3]", "result": 83.2, "unit": "µM"}, {"measurement": "TGI Conc. per Cell Lines", "setting": "SW-620", "result": 16.1, "unit": "µM"}, {"measurement": "GI50", "setting": "NCI-H226; [4]", "result": 3.99, "unit": "µM"}, {"measurement": "CC50", "setting": "NCI-H226; [5]", "result": 61.8, "unit": "µM"}, {"measurement": "TGI Conc. per Cell Lines", "setting": "CAKI-1", "result": 12.4, "unit": "µM"}, {"measurement": "LC50", "setting": "CAKI-1; Homo sapiens", "result": "> 100", "unit": "µM"}, {"measurement": "GI50", "setting": "CAKI-1; [2]", "result": 2.93, "unit": "µM"}, {"measurement": "GI50", "setting": "PC-3; [2]", "result": 2.31, "unit": "µM"}, {"measurement": "CC50", "setting": "PC-3; [3]", "result": "> 100", "unit": "µM"}, {"measurement": "TGI Conc. per Cell Lines", "setting": "PC-3", "result": 7.29, "unit": "µM"}, {"measurement": "LC50", "setting": "MDA/MB-231-ATCC; Homo sapiens", "result": "> 100", "unit": "µM"}, {"measurement": "GI50", "setting": "MDA/MB-231-ATCC; [2]", "result": 1.87, "unit": "µM"}, {"measurement": "TGI Conc. per Cell Lines", "setting": "MDA/MB-231-ATCC", "result": 3.66, "unit": "µM"}, {"measurement": "GI50", "setting": "SF-539; [2]", "result": 10.2, "unit": "µM"}, {"measurement": "CC50", "setting": "SF-539; [3]", "result": 51.2, "unit": "µM"}, {"measurement": "TGI Conc. per Cell Lines", "setting": "SF-539", "result": 29.5, "unit": "µM"}, {"measurement": "GI50", "setting": "Prostate cancer subpanel; Homo sapiens, Prostate cancer, average sensitivity of all cell lines of the subpanel, read-out: GI50 Subpanel MID b", "result": 2.45, "unit": "µM"}, {"measurement": "GI50 Selectivity Ratio (MID a/MID b)", "setting": "Prostate cancer subpanel; Prostate cancer subpanel", "result": 1.48}]}]}
